In experiment [1] the target is T1, human orexin-1 receptor (hOX1R) (Homo sapiens, UniProt O43613).
T1 construct: expressed in transfected cells; host or cells: Chinese hamster ovary (CHO) cells
T1 sequence (O43613 1-425): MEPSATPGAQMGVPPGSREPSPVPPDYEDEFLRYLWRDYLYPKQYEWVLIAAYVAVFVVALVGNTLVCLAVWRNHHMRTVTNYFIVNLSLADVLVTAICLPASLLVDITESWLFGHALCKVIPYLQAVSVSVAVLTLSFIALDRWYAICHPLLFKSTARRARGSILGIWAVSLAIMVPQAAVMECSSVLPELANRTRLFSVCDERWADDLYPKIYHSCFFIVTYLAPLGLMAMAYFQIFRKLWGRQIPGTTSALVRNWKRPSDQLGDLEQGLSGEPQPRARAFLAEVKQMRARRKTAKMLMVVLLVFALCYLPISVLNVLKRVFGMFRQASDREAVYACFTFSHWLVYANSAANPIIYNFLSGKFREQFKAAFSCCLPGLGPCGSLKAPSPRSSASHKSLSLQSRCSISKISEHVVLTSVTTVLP
Nature of the experiment: Measurement of orexin antagonistic activity (intracellular Ca2+ fluorescence, FDSS) on hOX1R. Conditions: CHO cells forcibly expressing hOX1R; Fluo-4AM; ligand peptide (substituted human orexin-A) 300 pM; compound preincubated 30 minutes; read-out: IC50 Value OX1. Type of experiment: cell-based. A digest of the protocol: (§1)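 CHO cells stably expressing hOX1R or hOX2R, loaded with 0.5 μM Fluo-4AM in HEPES/HBSS buffer with 0.1% BSA and 2.5 mM probenecid, pH 7.4, then preincubated 30 min with compound. Fluorescence recorded each second for 3 min by FDSS; maximum intensity taken as intracellular Ca2+ indicator of antagonism.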

In experiment [2] the target is T2, orexin-2 receptor (hOX2R) (Homo sapiens, UniProt O43614).
T2 construct: expressed in transfected cells; host or cells: Chinese hamster ovary (CHO) cells
T2 sequence (O43614 1-444): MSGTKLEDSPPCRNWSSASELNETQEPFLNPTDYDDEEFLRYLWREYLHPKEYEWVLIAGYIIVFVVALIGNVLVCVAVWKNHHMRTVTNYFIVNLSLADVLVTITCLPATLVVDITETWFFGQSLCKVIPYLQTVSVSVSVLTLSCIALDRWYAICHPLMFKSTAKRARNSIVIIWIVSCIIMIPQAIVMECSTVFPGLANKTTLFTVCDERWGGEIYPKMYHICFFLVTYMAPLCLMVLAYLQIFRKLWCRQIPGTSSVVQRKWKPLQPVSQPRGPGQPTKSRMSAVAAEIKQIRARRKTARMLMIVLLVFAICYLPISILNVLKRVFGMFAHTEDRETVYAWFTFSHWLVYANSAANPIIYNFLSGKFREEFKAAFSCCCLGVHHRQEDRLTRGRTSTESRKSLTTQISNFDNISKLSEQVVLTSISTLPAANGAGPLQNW
Nature of the experiment: Measurement of orexin antagonistic activity (intracellular Ca2+ fluorescence, FDSS) on hOX2R. It counts as cell-based. The settings on record: CHO cells forcibly expressing hOX2R; Fluo-4AM; ligand peptide (substituted human orexin-A) 3 nM; compound preincubated 30 minutes; read-out: IC50 Value OX2. The essentials:
as §1

For 22 molecules, IC50 results are on record in patent US20150166523A1, “BRANCHED CHAIN ALKYL HETEROAROMATIC RING DERIVATIVE” (TAISHO PHARMACEUTICAL CO., LTD., priority 2012, published 2015).

For `CCN(C(=O)c1ccccc1-c1ncccn1)[C@@H](C)Cc1noc(-c2ccc(F)cc2)n1` [Example 54, N-Ethyl-N-{(2S)-1-[5-(4-fluorophenyl)-1,2,4-oxadiazol-3-yl]propan-2-yl}-2-(pyrimidin-2-yl)benzamide], the IC50 (in general, the concentration that inhibits the measured activity by half) came to 2 nM in experiment [1] and 75.7 nM in experiment [2].

Regarding `Cc1ccc(-n2nccn2)c(C(=O)N(CCC#N)[C@@H](C)Cn2cc(-c3ccc(F)cc3)nn2)c1` [Example 91, N-(2-Cyanoethyl)-N-{(2S)-1-[4-(4-fluorophenyl)-1H-1,2,3-triazol-1-yl]propan-2-yl}-5-methyl-2-(2H-1,2,3-triazol-2-yl) benzamide], the IC50 worked out at 203 nM in experiment [1] and 279 nM in experiment [2].

Turning to `CCN(C(=O)c1cc(F)ccc1-n1nccn1)[C@@H](C)Cn1nnc(-c2ccc(F)cc2)n1` [Example 66, N-Ethyl-5-fluoro-N-{(2S)-1-[5-(4-fluorophenyl)-2H-tetrazol-2-yl]propan-2-yl}-2-(2H-1,2,3-triazol-2-yl) benzamide], the IC50 in experiment [1] came to 1.6 nM; in experiment [2], 129 nM.

In the case of `CCN(C(=O)c1cc(F)ccc1-c1ncccn1)[C@@H](C)Cc1noc(-c2ccc(F)cc2)n1` [Example 53, N-Ethyl-5-fluoro-N-{(2S)-1-[5-(4-fluorophenyl)-1,2,4-oxadiazol-3-yl]propan-2-yl}-2-(pyrimidin-2-yl) benzamide], the values for the IC50 in experiment [1] and in experiment [2] were 6.6 nM and 75.6 nM, respectively.

`CCN(C(=O)c1cc(F)ccc1-c1ncccn1)[C@@H](C)Cn1ccc(-c2ccc(F)cn2)n1` [Example 8, N-Ethyl-5-fluoro-N-[(2S)-1-[3-(5-fluoropyridin-2-yl)-1H-pyrazol-1-yl]propan-2-yl]-2-(pyrimidin-2-yl) benzamide]: the IC50 worked out at 1.5 nM in experiment [1] and 35.3 nM in experiment [2].

Regarding `Cc1ccc(-n2nccn2)c(C(=O)N(C)[C@@H](C)Cn2cc(-c3ccc(F)cc3)cn2)n1` [Example 28, N-{(2S)-1-[4-(4-Fluorophenyl)-1H-pyrazol-1-yl]propan-2-yl}-N,6-dimethyl-3-(2H-1,2,3-triazol-2-yl)pyridine-2-carboxamide], the IC50 in experiment [1] came to 18.6 nM; in experiment [2], 89.3 nM.

For `COCCN(C(=O)c1cc(C)ccc1-n1nccn1)[C@@H](C)Cn1ccc(-c2ccc(F)cn2)n1` [Example 40, N-{(2S)-1-[3-(5-Fluoropyridin-2-yl)-1H-pyrazol-1-yl]propan-2-yl]}-N-(2-methoxyethyl-5-methyl-2-(2H-1,2,3-triazol-2-yl)benzamide], the IC50 was found to be 1.4 nM in experiment [1] and 12.4 nM in experiment [2].

With `CCN(C(=O)c1nc(C)ccc1-n1nccn1)[C@@H](C)Cn1cc(-c2ccc(F)cn2)nn1` [Example 77, N-Ethyl-N-{(2S)-1-[4-(5-fluoropyridin-2-yl)-1H-1,2,3-triazol-1-yl]propan-2-yl}-6-methyl-3-(2H-1,2,3-triazol-2-yl)pyridine-2-carboxamide], the IC50 in experiment [1] amounted to 48.8 nM; in experiment [2], 1450 nM.

`CCN(C(=O)c1nc(C)ccc1-n1nccn1)[C@@H](C)Cn1nnc(-c2ccc(F)cc2)n1` [Example 65, N-Ethyl-N-{(2S)-1-[5-(4-fluorophenyl)-2H-tetrazol-2-yl]propan-2-yl}-6-methyl-3-(2H-1,2,3-triazol-2-yl)pyridine-2-carboxamide]: the IC50 in experiment [1] was determined as 1.3 nM; in experiment [2], 144 nM.

For the molecule `Cc1ccc(-n2nccn2)c(C(=O)N(CCO)[C@@H](C)Cn2cc(-c3ccc(F)cc3)cn2)c1` [Example 43, N-{(2S)-1-[4-(4-Fluorophenyl)-1H-pyrazol-1-yl]propan-2-yl}-N-(2-hydroxyethyl)-5-methyl-2-(2H-1,2,3-triazol-2-yl)benzamide], the IC50 came out at 3.5 nM in experiment [1] and 13.6 nM in experiment [2].

With `CCN(C(=O)c1cc(F)ccc1-c1ncccn1)[C@@H](C)Cn1cc(-c2ccc(F)cn2)nn1` [Example 81, N-Ethyl-5-fluoro-N-{(2S)-1-[4-(5-fluoropyridin-2-yl)-1H-1,2,3-triazol-1-yl]propan-2-yl}-2-(pyrimidin-2-yl) benzamide], the IC50 in experiment [1] stood at 177 nM; in experiment [2], 3150 nM.

Take `C[C@@H](Cn1cc(-c2ccc(F)cc2)cn1)N(C)C(=O)c1cc(F)ccc1-c1ncccn1` [Example 32, 5-Fluoro-N-{(2S)-1-[4-(4-fluorophenyl)-1H-pyrazol-1-yl]propan-2-yl}-N-methyl-2-(pyrimidin-2-yl)benzamide]: the IC50 worked out at 20.7 nM in experiment [1] and 96.9 nM in experiment [2].

With `CCN(C(=O)c1cc(C)ccc1-n1nccn1)[C@@H](C)Cn1cc(-c2ccccn2)nn1` [Example 94, N-Ethyl-5-methyl-N-{(2S)-1-[4-(pyridin-2-yl)-1H-1,2,3-triazol-1-yl]propan-2-yl}-2-(2H-1,2,3-triazol-2-yl) benzamide], the half-inhibitory concentration (IC50) was determined as 9.3 nM in experiment [1] and 108 nM in experiment [2].

For the molecule `CCN(C(=O)c1nc(C)ccc1-n1nccn1)[C@@H](C)Cn1cc(-c2ccc(F)c(F)c2)cn1` [Example 27, N-{(2S)-1-[4-(3,4-Difluorophenyl)-1H-pyrazol-1-yl]propan-2-yl}-N-ethyl-6-methyl-3-(2H-1,2,3-triazol-2-yl) pyridine-2-carboxamide], the IC50 in experiment [1] turned out to be 1.4 nM; in experiment [2], 13.8 nM.

On to `CCN(C(=O)c1cc(C)ccc1-n1nccn1)C(C)Cc1cnn(-c2ccc(F)cn2)c1` (centres unmarked) [Example 74, N-Ethyl-N-{1-[1-(5-fluoropyridin-2-yl)-1H-pyrazol-4-yl]propan-2-yl}-5-methyl-2-(2H-1,2,3-triazol-2-yl)benzamide], for which the IC50 in experiment [1] turned out to be 1.3 nM; in experiment [2], 13.1 nM.

As to `CCN(C(=O)c1cc(C)ccc1-n1nccn1)[C@@H](C)Cn1nnc(-c2ccc(F)cn2)n1` [Example 85, N-Ethyl-N-{(2S)-1-[5-(5-fluoropyridin-2-yl)-2H-tetrazol-2-yl]propan-2-yl}-5-methyl-2-(2H-1,2,3-triazol-2-yl)benzamide], the IC50 in experiment [1] was 1.3 nM; in experiment [2] it was 27.5 nM.

For the molecule `CCN(C(=O)c1cc(C)ccc1-n1nccn1)[C@@H](C)Cn1cc(-c2cccc(OC)c2)nn1` [Example 101, N-Ethyl-N-{(2S)-1-[4-(3-methoxyphenyl)-1H-1,2,3-triazol-1-yl]propan-2-yl}-5-methyl-2-(2H-1,2,3-triazol-2-yl)benzamide], the IC50 in experiment [1] came out at 0.9 nM; in experiment [2], 1.5 nM.

With `CCN(C(=O)c1cc(F)ccc1-n1nccn1)[C@@H](C)Cc1noc(-c2ccc(F)cn2)n1` [Example 57, N-Ethyl-5-fluoro-N-{(2S)-1-[5-(5-fluoropyridin-2-yl)-1,2,4-oxadiazol-3-yl]propan-2-yl}-2-(2H-1,2,3-triazol-2-yl) benzamide], the IC50 is 5.1 nM in experiment [1] and 1080 nM in experiment [2].

Turning to `CCN(C(=O)c1cc(C)ccc1-n1nccn1)[C@@H](C)Cn1cc(-c2ccc(F)cn2)cn1` [Example 25, N-Ethyl-N-{(2S)-1-[4-(5-fluoropyridin-2-yl)-1H-pyrazol-1-yl]propan-2-yl}5-methyl-2-(2H-1,2,3-triazol-2-yl) benzamide], the half-maximal inhibitory concentration (IC50) in experiment [1] worked out at 0.7 nM; in experiment [2] it was 6.4 nM.

Consider `CCN(C(=O)c1cc(C)ccc1-n1nccn1)[C@@H](C)Cn1cc(-c2cccc(O)c2)nn1` [Example 93, N-Ethyl-N-{(2S)-1-[4-(3-hydroxyphenyl)-1H-1,2,3-triazol-1-yl]propan-2-yl}-5-methyl-2-(2H-1,2,3-triazol-2-yl)benzamide], for which the figures for the IC50 in experiment [1] and in experiment [2] were 1.4 nM and 7.4 nM, respectively.

With `CCN(C(=O)c1cc(C)ccc1-n1nccn1)[C@@H](C)Cn1cc(-c2ccc(O)cc2)nn1` [Example 100, N-Ethyl-N-{(2S)-1-[4-(4-hydroxyphenyl)-1H-1,2,3-triazol-1-yl]propan-2-yl}-5-methyl-2-(2H-1,2,3-triazol-2-yl)benzamide], the IC50 in experiment [1] came out at 10.4 nM; in experiment [2], 774 nM.

`CCN(C(=O)c1cc(C)ccc1-c1ncccn1)[C@@H](C)Cc1noc(-c2ccc(F)cc2)n1` [Example 55, N-Ethyl-N-{(2S)-1-[5-(4-fluorophenyl)-1,2,4-oxadiazol-3-yl]propan-2-yl}-5-methyl-2-(pyrimidin-2-yl)benzamide]: the IC50 in experiment [1] was found to be 1.4 nM; in experiment [2], 9.4 nM.
